Measured values: publication PMC12021085 (2025)

Columns and labels:
[1] = tested on: NOP56-G4 template (with annealed Cy5 primer) (DNA, G4) GGGCCTGGGCCTGGGCCTGGGTTTTTTTATAGTGAGTCGTATTA/TAATACGACTCACTATA; assay: DNA polymerase stop assay (Klenow fragment); conditions: K+ (100 mM KCl), Na+ (50 mM NaCl), Mg2+ (10 mM MgCl2); 10 mM Tris-HCl pH 7.9, 1 mM DTT, 37 °C; PDS concentration-dependent stalling
[2] = tested on: NOP56-G4 (DNA, G4) GGGCCTGGGCCTGGGCCTGGG; assay: CD spectroscopy; conditions: K+ (100 mM KCl), Na+ (1 mM sodium phosphate); pH 7, 25 °C; 20 µM DNA, 20 µM PDS; antiparallel G4 features
[3] = tested on: NOP56-G4 (DNA, G4) GGGCCTGGGCCTGGGCCTGGG; assay: CD melting at 295 nm; conditions: Na+ (1 mM sodium phosphate); pH 7; 3 equivalents PDS; Tm 44.8 to 58.8 °C
[4] = tested on: NOP56-G4 (DNA, G4) GGGCCTGGGCCTGGGCCTGGG; assay: ITC; conditions: Na+ (1 mM sodium phosphate); pH 7.0, room temperature; 200 µM PDS titrated into 10 µM DNA
[5] = tested on: NOP56-G4 (DNA, G4) GGGCCTGGGCCTGGGCCTGGG; assay: solution NMR structure; conditions: Na+ (1 mM sodium phosphate); pH 7, 25 °C; 0.5 mM DNA, 1.5 mM PDS; stacks on terminal G-tetrad

## NCCOc1cc(C(=O)Nc2cc(OCCN)c3ccccc3n2)nc(C(=O)Nc2cc(OCCN)c3ccccc3n2)c1
[1]
  binding: yes
[2]
  binding: yes
[3]
  Tm increase: ~ 14 °C
[4]
  KD: 640 ± 20 nM
[5]
  binding: yes
